Laboratory results reported in patent US20220411378A1, “SMALL MOLECULES POLYMERASE INHIBITORS” (GEORGIA STATE UNIVERSITY RESEARCH FOUNDATION, INC., priority 2019, published 2022).
Entries after “also recorded” stand apart in the source; their conditions may differ. Where two headings read alike, the source gives them in different places.

Assays:
CDV-Onderstepoort RdRP = CDV-Onderstepoort RdRP (Canine distemper virus, UniProt P24658); type: cell-based
MeV = type: cell-based
RSV-derived minigenome = RSV-derived minigenome (Human respiratory syncytial virus A, UniProt P28887); type: cell-based
HPIV1 isolate 5F6 = assay: organism not typed; type: cell-based
HPIV3 = assay: microbe, parasite or virus in culture; type: cell-based
[1] = tested on: MeV primary transcription; type: cell-based
[2] = tested on: clinical isolates of HPIV3; type: cell-based
[3] = tested on: MeV L with resistance mutations (LS869P, LI1009F, LY1106S, LS869P/Y942H); type: binding
HPIV2 = type: cell-based
in vitro [4] = type: in vitro ADME; conditions: plasma
Description: (§1) To determine stability in plasma, GHP-88309 was incubated in triplicate in pooled human or CD-1 mouse plasma (BioIVT) in glass tubes in a 37° C. shaker-incubator (150 rpm). Procaine and benfluorex served as positive controls and were analyzed in parallel. […] To determine stability in liver microsomes, GHP-88309 was incubated in triplicate in glass tubes in 50 mM Tris-HCl (pH 7.5) buffer with 8 mM MgCl2, 25 μg/mL alamethicin, Phase I and Phase II cofactors (NADPH regenerating system (NRS) and 2 mM UDPGA, respectively) and 0.5 mg total protein pooled mixed gender human liver microsomes (BioIVT) or pooled CD-1 mouse liver microsomes (Xenotech) in a 37° C. shaker incubator (150 rpm). Verapamil served as Phase I positive control, negative controls lacked cofactors and contained 2% (w/v) NaHCO3 in water instead of NRS. Aliquots were taken after 0, 15, […], 30, 60 and 120 minutes and processed as outlined above.

SeV [5] = tested on: SeV; parameters: species or system mice; conditions: mouse, in vivo
in vitro [6] = conditions: human
[7] = tested on: different immortalized cell lines; assay: Cell proliferation / cytotoxicity in cultured immortalized cell lines; type: cell-based
[8] = tested on: canine distemper virus (CDV); type: cell-based
HPIV3-infected HBTECs = type: cell-based, human
[9] = Stability in mouse liver microsomes; type: in vitro ADME
Description: as §1

influenza A viruses = type: cell-based
purified MeV L (L1708) = purified MeV L (L1708) (Measles virus, UniProt Q9WMB3); assay: biochemical; type: binding
SeV [10] = type: cell-based
HPIV3-JS RdRP = type: cell-based
HPIV1 = type: cell-based
MeV-Edm RdRP = MeV-Edm RdRP (Measles virus, UniProt P12576); type: cell-based
[11] = Pharmacokinetics analysis in mice; type: in vivo
RSV = type: cell-based
recHPIV3-JS-NanoLuc = assay: microbe, parasite or virus in culture; type: cell-based
[12] = Stability in human liver microsomes; type: in vitro ADME
Description: as §1

NiV L = NiV L (Nipah virus, UniProt Q997F0); assay: cell-based
[13] = tested on: HPIV3 primary transcription; type: cell-based
in vitro [14] = conditions: African green monkey
[15] = molecular target: purified MeV P-L proteins (Measles virus, UniProt Q9WMB3); type: biochemical
[16] = tested on: clinical isolates HPIV3-9R4 and HPIV3-10L3; assay: microbe, parasite or virus in culture; type: cell-based

Compound: NC(=O)c1c(F)cccc1-c1cccc2cnccc12 [GHP-88309, 2-fluoro-6-(5-isoquinolyl)benzamide]
- inhibition of viral RdRP activity (CDV-Onderstepoort RdRP): specific inhibition
- inhibitory activity (MeV): Inhibitory activity
- potency (EC50) against clinical isolates (MeV): low-micromolar to submicromolar
- inhibition of viral RdRP activity (RSV-derived minigenome): not affected
- EC50 (HPIV1 isolate 5F6): 0.28 µM
- EC50 (HPIV3): 0.105 µM
- sterilizing concentration in the basolateral chamber (HPIV3): 10 µM
- EC50 (HPIV3; Human respirovirus 3): 0.09 µM
- viral mRNA amounts during primary transcription [1]: dose-dependent reduction
- potency (EC50) against clinical isolates [2]: low-micromolar to submicromolar
- binding [3]: drastically reduced
- inhibitory activity (HPIV2): not inhibited
- half-life (in vitro [4]; CD-1, mouse): > 15 h
- half-life (in vitro [4]; human): > 15 h
- IFN-β induction in lung tissue (SeV [5]): significantly lower
- IL12b expression in lung tissue (SeV [5]): increased
- body temperature (SeV [5]): prevented hypothermia
- body weight (SeV [5]): alleviated body weight losses
- clinical signs (SeV [5]): significantly alleviated
- expression of inflammatory markers (IL-6, TNF, Acod1) (SeV [5]): significantly decreased
- humoral anti-SeV response of recoverees (SeV [5]): robust humoral anti-SeV response
- lung histopathology (SeV [5]): no statistically significant (P=0.62) pathological changes
- lung inflammation and cellular infiltrates (SeV [5]): alleviated
- outcome of rechallenge (SeV [5]): complete survival without development of clinical signs
- survival (SeV [5]): All treated animals survived; also recorded: complete protection
- survival after primary infection (SeV [5]): all animals survived
- virus load in lungs (SeV [5]): significantly reduced
- virus load in trachea (SeV [5]): significantly reduced
- CC50 (in vitro [6]): 1000 µM
- effect on cell proliferation ([7]; concentration range up to 100 μM): No toxicity was detectable
- cytotoxicity ([7]; multi-day incubation, up to 1 mM, infected cells highest 300 μM): no cytotoxicity
- inhibitory activity [8]: Inhibitory activity
- IFN-β levels (HPIV3-infected HBTECs): did not reduce
- ISG expression (HPIV3-infected HBTECs): enhanced
- half-life ([9]; CD-1, mouse, pooled CD-1 mouse liver microsomes, pH 7.5, mouse liver microsomes, read-out: half-life (t1/2)): > 15 h
- half-life (t1/2) ([9]; mouse liver microsomes): > 24 h
- inhibitory activity (influenza A viruses): not inhibited
- Kd (purified MeV L (L1708)): 6.2 µM
- difference between EC50 and KD concentrations (purified MeV L (L1708)): ~10 fold
- inhibitory activity (SeV [10]): Inhibitory activity
- inhibition of viral RdRP activity (HPIV3-JS RdRP): specific inhibition
- inhibitory activity (HPIV1): Inhibitory activity
- potency (EC50) against clinical isolates (HPIV1): low-micromolar to submicromolar
- inhibition of viral RdRP activity (MeV-Edm RdRP): specific inhibition
- TEER and tight junction organization (3D-ALI-HBTEC): unchanged
- effect of multi-day dosing on PK properties ([11]; 150 mg/kg oral, single vs multi dosing): did not significantly (P>0.82) alter
- tolerability ([11]; 5-day multi-dose oral, b.i.d. 150 mg/kg): well tolerated; also recorded: no signs of biotoxicity
- organ concentrations ([11]; all soft tissues incl. lung, 60 minutes after plasma Cmax, single oral 150 mg/kg): 70 to 246 nmol/g
- concentration at 11.5 h ([11]; female, 129x1/SvJ, mouse, plasma, 150 mg/kg oral b.i.d., 4-day treatment period, read-out: drug plasma concentration at trough): ~34 µM
- bioavailability ([11]; female, 129x1/SvJ, mouse, plasma, single-dose oral vs i.v.): ~90%
- sustained drug plasma concentrations ([11]; single oral dose 150 mg/kg): > 30 µM
- inhibitory activity (RSV): not inhibited
- EC50 (recHPIV3-JS-NanoLuc): 0.59 to 1.16 µM
- EC50 (recHPIV3-JS-NanoLuc; Human respirovirus 3): < 1 µM
- EC50 (recHPIV3-JS-NanoLuc; Human respirovirus 3, read-out: active concentrations against recHPIV3-JS-NanoLuc): 0.4 to 0.78 µM
- half-life ([12]; both sexes, human, pooled human liver microsomes, pH 7.5, human liver microsomes, read-out: half-life (t1/2)): > 15 h
- half-life (t1/2) ([12]; human liver microsomes): 15.3 h
- EC50 (NiV L): 314 µM
- viral mRNA amounts during primary transcription [13]: dose-dependent reduction
- CC50 (in vitro [14]): > 20 µM
- RNA elongation (3′ extension) after back-priming [15]: does not block; also recorded: did not block RNA elongation
- de novo RNA synthesis (initiation at the promoter) [15]: inhibits; also recorded: dose-dependent inhibition
- EC50 ([16]; Human respirovirus 3, HPIV3-9R4 on HBTEC cultures): 0.07 µM
- EC50 ([16]; Human respirovirus 3, HPIV3-10L3 on HBTEC cultures): 0.08 µM
